Assay results as given in ChEMBL document CHEMBL1201862, “PubChem BioAssay data set” (2004).
The source made the active and inactive calls.

Legend:
[1] = biological target: Large T antigen (Simian virus 40, UniProt P03070); type: functional, Betapolyomavirus macacae;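 note: Confirmatory-stage PubChem screen for compounds that inhibit SV40 T antigen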
[2] = biological target: T1, Corticotropin-releasing factor receptor 2/Corticotropin-releasing factor-binding protein (Homo sapiens, UniProt P24387+Q13324); experiment: Dose Response confirmation of uHTS hits for small molecule antagonists of the CRF-binding protein and CRF-R2 receptor complex.; type: functional; conditions: read-out: IC50_Mean
T1 sequence (Q13324 whole entry): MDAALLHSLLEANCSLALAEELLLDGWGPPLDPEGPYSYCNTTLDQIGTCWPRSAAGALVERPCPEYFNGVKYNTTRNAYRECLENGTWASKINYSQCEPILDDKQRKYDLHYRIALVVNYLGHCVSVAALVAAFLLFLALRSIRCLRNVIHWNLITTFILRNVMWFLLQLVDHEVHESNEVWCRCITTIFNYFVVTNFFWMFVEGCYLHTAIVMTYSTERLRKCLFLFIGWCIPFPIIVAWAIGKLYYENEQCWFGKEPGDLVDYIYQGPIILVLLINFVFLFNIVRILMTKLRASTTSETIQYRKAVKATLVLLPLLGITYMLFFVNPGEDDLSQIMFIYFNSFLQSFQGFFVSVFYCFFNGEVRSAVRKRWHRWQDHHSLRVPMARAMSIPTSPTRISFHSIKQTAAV
T1 sequence (P24387 whole entry): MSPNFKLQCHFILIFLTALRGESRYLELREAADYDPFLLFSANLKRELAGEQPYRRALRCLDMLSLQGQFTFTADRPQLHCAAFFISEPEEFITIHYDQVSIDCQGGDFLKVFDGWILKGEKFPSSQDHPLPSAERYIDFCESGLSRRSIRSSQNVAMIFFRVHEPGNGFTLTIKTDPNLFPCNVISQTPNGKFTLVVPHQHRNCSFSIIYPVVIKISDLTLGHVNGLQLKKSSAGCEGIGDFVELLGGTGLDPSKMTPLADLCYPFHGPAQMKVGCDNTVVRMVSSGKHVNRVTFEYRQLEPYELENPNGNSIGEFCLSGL

[3] = biological target: T1, Corticotropin-releasing factor receptor 2/Corticotropin-releasing factor-binding protein; experiment: activators of CRF receptor 2 with binding protein – uHTS hits, confirmation (AID 602473); type: functional; conditions: read-out: EC50_Mean
[4] = biological target: T2, Cytochrome P450 1A2 (Homo sapiens, UniProt P05177);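 note: PubChem cytochrome P450 panel assay, CYP1A2 panel member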
T2 sequence (P05177 whole entry): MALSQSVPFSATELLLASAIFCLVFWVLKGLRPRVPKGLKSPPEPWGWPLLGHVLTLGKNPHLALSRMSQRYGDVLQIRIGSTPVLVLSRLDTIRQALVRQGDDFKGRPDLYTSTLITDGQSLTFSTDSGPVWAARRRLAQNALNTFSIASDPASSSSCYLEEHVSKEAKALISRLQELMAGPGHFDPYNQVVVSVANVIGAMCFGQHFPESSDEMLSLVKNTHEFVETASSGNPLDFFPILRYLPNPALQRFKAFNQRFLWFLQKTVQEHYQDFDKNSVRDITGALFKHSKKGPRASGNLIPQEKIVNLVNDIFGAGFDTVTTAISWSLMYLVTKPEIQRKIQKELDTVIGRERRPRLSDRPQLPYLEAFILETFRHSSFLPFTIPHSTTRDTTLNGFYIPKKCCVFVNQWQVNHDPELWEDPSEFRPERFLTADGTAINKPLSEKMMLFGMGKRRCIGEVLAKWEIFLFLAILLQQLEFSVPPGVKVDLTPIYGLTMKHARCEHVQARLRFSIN

[5] = biological target: Cytochrome P450 2C9 (Homo sapiens, UniProt P11712)
Sequence of Cytochrome P450 2C9 (P11712 whole entry): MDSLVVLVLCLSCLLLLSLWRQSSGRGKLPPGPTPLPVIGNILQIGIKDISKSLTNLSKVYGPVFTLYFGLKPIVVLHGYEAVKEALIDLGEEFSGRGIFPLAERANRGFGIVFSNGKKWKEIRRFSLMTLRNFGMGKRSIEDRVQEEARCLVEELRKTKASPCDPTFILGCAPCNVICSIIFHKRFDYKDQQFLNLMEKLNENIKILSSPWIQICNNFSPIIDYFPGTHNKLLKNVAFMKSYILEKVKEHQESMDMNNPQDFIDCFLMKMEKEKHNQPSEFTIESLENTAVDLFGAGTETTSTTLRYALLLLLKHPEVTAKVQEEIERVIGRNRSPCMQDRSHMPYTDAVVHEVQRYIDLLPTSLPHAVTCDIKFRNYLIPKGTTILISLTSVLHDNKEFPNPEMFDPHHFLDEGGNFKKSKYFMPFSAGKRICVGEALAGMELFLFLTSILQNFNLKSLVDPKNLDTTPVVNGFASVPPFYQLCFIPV

[6] = biological target: FAD-linked sulfhydryl oxidase ALR (Homo sapiens, UniProt P55789); experiment: inhibitors of human ALR sulfhydryl oxidase, dose response, biochemical, H2O2 detection, luminescence, cherry-pick (AID 493248)
Sequence of FAD-linked sulfhydryl oxidase ALR (P55789 whole entry): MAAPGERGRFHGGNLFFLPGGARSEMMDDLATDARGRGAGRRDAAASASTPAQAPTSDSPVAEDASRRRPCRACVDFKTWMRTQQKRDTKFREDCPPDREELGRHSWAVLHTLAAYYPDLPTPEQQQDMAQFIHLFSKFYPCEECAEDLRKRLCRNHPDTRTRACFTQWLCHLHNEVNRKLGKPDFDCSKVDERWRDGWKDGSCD

[7] = system: Vero; experiment: cells; type: functional; conditions: Chlorocebus sabaeus
[8] = inhibitors of intracellular T. cruzi replication, confirmation, NIH3T3 host cells, beta-gal luminescence (AID 2044); type: functional, cell-based;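 note: intracellular parasites grown in NIH/3T3 mouse fibroblasts as host cells; luminescent beta-galactosidase reporter signal from transgenic T. cruzi replicating inside host cells; inhibitors lower the luminescence signal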
[9] = cytotoxicity toward NIH3T3 fibroblasts, dose response, counter-screen, cell-based, ATP luminescence, mouse fibroblasts (AID 2010); type: functional;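 note: cells exposed to compound for about 90 hours before reading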
[10] = biological target: Nonstructural protein 1 (Influenza A virus, UniProt Q194T2); type: functional, Influenza A virus (A/California/07/2009(H1N1))
Sequence of Nonstructural protein 1 (Q194T2 whole entry): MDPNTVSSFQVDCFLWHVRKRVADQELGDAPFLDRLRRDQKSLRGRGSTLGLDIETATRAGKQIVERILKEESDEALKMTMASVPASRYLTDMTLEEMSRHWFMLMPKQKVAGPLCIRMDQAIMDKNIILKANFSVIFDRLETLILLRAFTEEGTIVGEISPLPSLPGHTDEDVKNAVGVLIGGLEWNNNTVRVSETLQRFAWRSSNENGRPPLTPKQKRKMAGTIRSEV

[11] = cells; type: functional, cell-based
[12] = cells; type: functional, cell-based; remark: listed apart in the source
[13] = biological target: Heat shock protein HSP 90-alpha (Homo sapiens, UniProt P07900); type: functional, organism-based
[14] = biological target: T3, RNA-binding protein pos-1 (Caenorhabditis elegans, UniProt G5EF15); experiment: inhibitors of POS-1/mex-3 RNA binding, dose response, biochemical, fluorescence polarization (AID 1964);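 note: purified POS-1 fused to maltose binding protein made in E. coli; potency of compounds blocking POS-1 binding to fluorescent RNA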
T3 sequence (G5EF15 whole entry): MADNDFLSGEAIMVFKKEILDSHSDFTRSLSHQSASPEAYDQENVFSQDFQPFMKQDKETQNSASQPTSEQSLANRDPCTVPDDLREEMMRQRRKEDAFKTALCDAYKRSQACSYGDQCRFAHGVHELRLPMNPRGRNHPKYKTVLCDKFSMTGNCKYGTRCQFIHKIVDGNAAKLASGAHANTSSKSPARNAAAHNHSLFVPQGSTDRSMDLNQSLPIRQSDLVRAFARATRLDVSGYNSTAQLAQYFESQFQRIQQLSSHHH

[15] = biological target: T4, Zinc finger protein mex-5 (Caenorhabditis elegans, UniProt Q9XUB2); experiment: MEX-5/TCR-2 RNA interaction inhibitors, dose response, biochemical, C. elegans, fluorescence polarization (AID 1960)
T4 sequence (Q9XUB2 whole entry): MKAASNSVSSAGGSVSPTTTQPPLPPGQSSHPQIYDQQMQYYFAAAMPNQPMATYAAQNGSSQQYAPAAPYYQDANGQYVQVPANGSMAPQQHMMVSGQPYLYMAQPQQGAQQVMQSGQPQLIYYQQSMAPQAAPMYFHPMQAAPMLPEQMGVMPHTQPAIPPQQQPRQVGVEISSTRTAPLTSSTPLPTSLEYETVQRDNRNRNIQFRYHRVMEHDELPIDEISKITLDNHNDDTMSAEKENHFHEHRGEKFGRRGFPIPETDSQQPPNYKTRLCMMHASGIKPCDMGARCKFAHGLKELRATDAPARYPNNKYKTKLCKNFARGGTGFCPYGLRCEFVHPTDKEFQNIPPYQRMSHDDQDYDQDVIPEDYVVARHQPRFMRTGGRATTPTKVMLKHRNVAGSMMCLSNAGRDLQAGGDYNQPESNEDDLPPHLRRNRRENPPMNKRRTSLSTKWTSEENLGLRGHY

[16] = biological target: T5, Estrogen receptor (Homo sapiens, UniProt P03372);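 note: potency for inhibiting coactivator peptide recruitment to the receptor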
T5 sequence (P03372 whole entry): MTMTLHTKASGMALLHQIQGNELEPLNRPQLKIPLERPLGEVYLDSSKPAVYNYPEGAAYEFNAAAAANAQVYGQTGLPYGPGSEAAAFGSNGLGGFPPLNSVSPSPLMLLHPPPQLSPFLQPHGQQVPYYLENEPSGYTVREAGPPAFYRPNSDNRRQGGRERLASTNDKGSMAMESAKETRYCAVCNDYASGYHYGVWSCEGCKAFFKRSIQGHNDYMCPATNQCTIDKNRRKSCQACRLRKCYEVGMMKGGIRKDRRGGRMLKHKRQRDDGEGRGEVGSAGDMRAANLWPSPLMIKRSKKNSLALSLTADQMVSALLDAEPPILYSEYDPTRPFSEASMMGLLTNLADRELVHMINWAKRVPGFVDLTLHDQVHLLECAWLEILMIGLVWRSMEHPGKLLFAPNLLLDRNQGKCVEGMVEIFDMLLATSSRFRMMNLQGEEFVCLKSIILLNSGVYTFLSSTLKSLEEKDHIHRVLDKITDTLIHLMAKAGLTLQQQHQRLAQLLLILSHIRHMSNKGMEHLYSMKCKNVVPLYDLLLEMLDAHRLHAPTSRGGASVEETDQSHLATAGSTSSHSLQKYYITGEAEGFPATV

[17] = biological target: Cytochrome P450 2C19 (Homo sapiens, UniProt P33261); experiment: Cytochrome panel assay with activity outcomes. Panel member name: p450-cyp2c19 Compounds with AC50 equal or less than 10 uM are considered active; type: functional; conditions: read-out: AC50
Sequence of Cytochrome P450 2C19 (P33261 whole entry): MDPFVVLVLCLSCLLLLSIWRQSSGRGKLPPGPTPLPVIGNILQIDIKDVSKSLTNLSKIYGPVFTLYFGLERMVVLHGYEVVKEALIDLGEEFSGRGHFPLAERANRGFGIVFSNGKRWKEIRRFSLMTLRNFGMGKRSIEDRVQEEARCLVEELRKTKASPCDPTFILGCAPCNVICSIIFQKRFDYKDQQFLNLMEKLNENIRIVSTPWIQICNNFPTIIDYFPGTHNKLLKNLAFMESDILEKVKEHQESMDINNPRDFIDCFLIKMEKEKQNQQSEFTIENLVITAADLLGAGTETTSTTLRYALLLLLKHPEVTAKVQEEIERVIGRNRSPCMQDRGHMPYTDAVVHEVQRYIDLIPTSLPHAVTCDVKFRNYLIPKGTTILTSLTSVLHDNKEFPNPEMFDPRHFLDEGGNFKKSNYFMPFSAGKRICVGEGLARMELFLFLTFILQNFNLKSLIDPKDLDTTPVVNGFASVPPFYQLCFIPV

[18] = biological target: Cytochrome P450 2D6 (Homo sapiens, UniProt P10635);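 note: CYP2D6 member of a cytochrome P450 panel assay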
Sequence of Cytochrome P450 2D6 (P10635 whole entry): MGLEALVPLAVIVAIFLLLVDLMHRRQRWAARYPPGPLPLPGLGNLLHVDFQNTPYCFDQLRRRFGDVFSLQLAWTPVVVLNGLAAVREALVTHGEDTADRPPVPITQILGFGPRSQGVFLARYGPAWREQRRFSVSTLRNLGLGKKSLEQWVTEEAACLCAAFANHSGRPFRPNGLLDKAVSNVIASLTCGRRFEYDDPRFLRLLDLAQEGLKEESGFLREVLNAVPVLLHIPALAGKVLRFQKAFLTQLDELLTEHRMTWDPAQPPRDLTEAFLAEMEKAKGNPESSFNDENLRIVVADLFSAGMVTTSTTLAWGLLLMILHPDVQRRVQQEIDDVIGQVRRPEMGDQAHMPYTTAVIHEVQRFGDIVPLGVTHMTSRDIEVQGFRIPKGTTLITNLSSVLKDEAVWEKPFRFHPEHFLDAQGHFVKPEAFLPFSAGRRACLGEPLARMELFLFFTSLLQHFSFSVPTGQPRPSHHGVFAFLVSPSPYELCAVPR

Sequence of Large T antigen (P03070 whole entry): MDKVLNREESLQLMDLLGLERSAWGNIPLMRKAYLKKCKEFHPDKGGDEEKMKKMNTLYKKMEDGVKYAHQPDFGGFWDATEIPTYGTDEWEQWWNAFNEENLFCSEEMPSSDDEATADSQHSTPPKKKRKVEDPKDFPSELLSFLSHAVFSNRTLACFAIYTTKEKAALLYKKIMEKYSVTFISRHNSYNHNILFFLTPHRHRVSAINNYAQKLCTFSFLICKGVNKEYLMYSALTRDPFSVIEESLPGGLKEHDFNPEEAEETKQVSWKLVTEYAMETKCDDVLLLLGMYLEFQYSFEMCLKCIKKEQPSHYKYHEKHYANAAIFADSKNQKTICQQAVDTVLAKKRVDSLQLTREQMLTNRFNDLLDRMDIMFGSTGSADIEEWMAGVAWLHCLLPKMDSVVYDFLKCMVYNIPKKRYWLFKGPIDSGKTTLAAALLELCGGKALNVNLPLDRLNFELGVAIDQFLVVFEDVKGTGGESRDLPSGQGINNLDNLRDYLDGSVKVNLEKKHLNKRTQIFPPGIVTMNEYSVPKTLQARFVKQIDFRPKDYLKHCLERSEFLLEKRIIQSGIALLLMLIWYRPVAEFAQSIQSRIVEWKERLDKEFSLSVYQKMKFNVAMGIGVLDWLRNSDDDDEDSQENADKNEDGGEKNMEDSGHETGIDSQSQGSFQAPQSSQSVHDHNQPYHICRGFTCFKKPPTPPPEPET

CCOC(=O)C1=C(O)/C(=C/c2cccc(OC)c2O)N=C1C
IC50 [1]: 16.4 µM (active)

CCC(C)N(C(=O)COC(=O)/C=C/c1ccc(O)c(OC)c1)C1CCS(=O)(=O)C1 (centres undefined)
IC50 [1]: 11.4 µM (active)

COc1ccccc1OCC(=O)NNC(=O)c1cnccn1
IC50 [2]: > 47.1 µM (inactive) | EC50 [3]: > 53 µM (inactive) | AC50 [4]: 17.8 µM (inconclusive) | AC50 [5]: inconclusive

COC(=O)CNc1c(-c2ccccc2)nc2ccc(Br)cn12
AC50 [6]: 1.08 µM (active)

COc1ccc([C@@]2(C(C)C)ON(c3ccccc3C(F)(F)F)C2=O)cc1
CC50 [7]: > 25 µM (active)

COc1ccc(OC)c2nc(O)c(CCNC(=O)COc3ccccc3)cc12
AC50 [5]: inconclusive

CC1CCN(c2c([N+](=O)[O-])nn(-c3ccc4c(c3)OCCO4)[n+]2[O-])CC1
EC50 [8]: 0.431 µM (active) | EC50 [9]: > 60 µM (not active) | IC50 [10]: 58.9 µM (active)

COc1ccccc1NC(=O)CSc1n[nH]c(-c2ccccn2)n1
IC50 [10]: 6.84 µM (active)

COc1cccc(OCc2cc(C(=O)N3CCN(c4ccccc4OC)CC3)no2)c1
EC50 [11]: > 350 µM (not active) | EC50 [12]: 66.7 µM (active)

COC(=O)[C@H](CCSC)NC(=O)C/C=C\[C@@H](C)CO
AC50 [5]: inconclusive

COc1ccc(N(C(=O)c2ccncc2)S(=O)(=O)c2ccc(Cl)cc2)cc1
AC50 [13]: 0.354 µM (active)

Cc1ccc(C[S+]([O-])Cc2ccc(C(=O)N3CCN(c4ccccc4)CC3)o2)cc1 (centres undefined)
EC50 [14]: > 300 µM (not active) | EC50 [15]: > 300 µM (not active) | EC50 [8]: 7.61 µM (active) | EC50 [9]: 33.2 µM (active) | AC50 [6]: 5.92 µM (active)

O=S(=O)(/C=C/c1ccccc1)NC1CCCCCC1
AC50 [13]: 10.5 µM (active)

NS(=O)(=O)c1ccc(-c2ccc(C=C3C(=O)NC(=S)NC3=O)o2)cc1
IC50 [1]: 10.5 µM (active)

O=C(O)C1CSC(c2coc3ccccc3c2=O)N1 (centres undefined)
AC50 [6]: 0.083 µM (active)

O=C(Cc1cccs1)Nc1nnc(COc2ccccc2)s1
IC50 [16]: 37.3 µM (not active)

O=C(NCc1ccccc1)C(=O)c1cn(CC(=O)N2CCOCC2)c2ccccc12
EC50 [11]: > 350 µM (not active) | EC50 [12]: > 350 µM (not active)

COc1cccc(C2=NOC(C(=O)Nc3ccc(OC)c(OC)c3)C2)c1 (centres undefined)
AC50 [17]: 25.1 µM (inconclusive) | AC50 [5]: inconclusive

Cc1ccc(-c2nc(C#N)c(NCCN3CCCCC3)o2)cc1
AC50 [6]: 4.4 µM (active)

Cn1c(=O)c2cc(S(=O)(=O)NCCC(=O)N3CC=C(c4ccccc4)CC3)ccc2n(C)c1=O
AC50 [17]: 25.1 µM (inconclusive) | AC50 [18]: 17.8 µM (inconclusive) | AC50 [4]: 31.6 µM (inconclusive) | AC50 [5]: inconclusive

c1ccc(-n2cnc3cc(NCc4ccccn4)ccc32)cc1
AC50 [6]: 1.17 µM (active)

CC(C)OC(=O)c1cc2c(ccn2C)n1CC(=O)N(Cc1ccccc1)c1ccc(F)cc1
IC50 [10]: > 100 µM (active)

CCNc1ncc2ncc(=O)n(C3CC3)c2n1
AC50 [5]: inconclusive

COc1ccc(C2(C)NC(=O)NC2=O)cc1OC (centres undefined)
EC50 [11]: > 350 µM (not active) | EC50 [12]: 116 µM (active)

O=C(O)c1cscc1Cc1cccs1
AC50 [5]: inconclusive

O=C(O)c1ccccc1C(=O)Nc1ccc(-c2csc(-c3ccccc3)n2)cc1
AC50 [6]: 0.218 µM (active)

O=C(CSc1nc2cc(Cl)ccc2s1)NC(=O)NCc1ccco1
IC50 [16]: > 50 µM (not active)

C=CCNC(=O)c1onc(CSc2cc(C)ccc2C)c1C(=O)O
AC50 [6]: 4.81 µM (active)

COc1ccc(C(=O)Nc2ccc(Cl)cn2)cc1Cl
AC50 [5]: inconclusive

CN1CCC2(CC1)N=C(c1ccc(F)cc1)C(=S)N2C(=O)c1ccc(C(C)(C)C)cc1
EC50 [11]: > 350 µM (not active) | EC50 [12]: 73.9 µM (active)

C[C@@H]1CC[C@H](Cc2ccc(-n3cccc3)cc2)N1C(=O)OC(C)(C)C
CC50 [7]: > 25 µM (active)

OCCOCCn1c(C2CCCN2c2nc(-c3ccc(F)cc3)cs2)nc2cc(C(F)(F)F)ccc21 (centres undefined)
AC50 [13]: 7.57 µM (active)

COc1ccc(Nc2nc(N/N=C/c3ccc(N(C)C)cc3)nc(C)c2[N+](=O)[O-])cc1
EC50 [11]: > 350 µM (not active) | EC50 [12]: > 350 µM (not active)

COc1ccc(/C=N/NC(=O)c2ccccc2O)cc1CSc1ccccn1
EC50 [11]: > 350 µM (not active) | EC50 [12]: > 350 µM (not active)

Cc1cccc(N2C(=O)C=CC2=O)c1
AC50 [13]: 1.63 µM (active)
